Results published in patent US4861798A, “Lipoxygenase inhibitory compounds” (Bristol-Myers Company, priority 1987, dated 1989).
Where two headings read alike, the source gives them in different places. Blank lines part the entries; values can stand above or below the compound they belong to.

Legend:
[1] = target: T1, 5-lipoxygenase (Human Leukocyte/PMNL 5-LPO) (Homo sapiens, UniProt P09917); assay: Inhibition of 5-lipoxygenase (5-HETE formation) in human neutrophil/platelet system; format: cell-based; settings: for % Inhibition at 100 μm: 4-alkoxyphenyl compounds
T1 construct: Human neutrophils and platelets were obtained from the blood of normal volunteers; endogenous in cells; host or cells: human blood leukocytes (neutrophils) of normal volunteers, with 0.1 to 0.5 platelets per leukocyte
T1 sequence (P09917 1-674): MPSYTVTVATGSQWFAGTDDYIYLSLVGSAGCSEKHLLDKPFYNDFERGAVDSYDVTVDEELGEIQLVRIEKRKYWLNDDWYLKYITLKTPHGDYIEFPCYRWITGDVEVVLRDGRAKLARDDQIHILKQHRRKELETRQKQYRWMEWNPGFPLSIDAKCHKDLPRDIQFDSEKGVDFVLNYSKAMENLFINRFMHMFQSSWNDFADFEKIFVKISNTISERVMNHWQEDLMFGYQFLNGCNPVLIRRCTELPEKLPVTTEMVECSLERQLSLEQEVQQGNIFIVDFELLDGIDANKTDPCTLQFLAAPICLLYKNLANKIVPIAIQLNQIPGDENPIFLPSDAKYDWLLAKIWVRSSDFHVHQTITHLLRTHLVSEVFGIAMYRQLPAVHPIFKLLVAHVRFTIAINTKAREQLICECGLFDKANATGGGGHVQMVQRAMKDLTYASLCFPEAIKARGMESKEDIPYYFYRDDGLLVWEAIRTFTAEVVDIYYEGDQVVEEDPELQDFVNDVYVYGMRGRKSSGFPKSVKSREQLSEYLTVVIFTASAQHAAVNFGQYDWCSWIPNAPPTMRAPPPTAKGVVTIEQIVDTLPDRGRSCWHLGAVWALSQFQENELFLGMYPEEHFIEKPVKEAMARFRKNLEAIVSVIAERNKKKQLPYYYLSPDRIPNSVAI
From the text: This test is a measure of the inhibition of the synthesis of lipoxygenase products generated by human neutrophils and platelets. The protocol is similar to that described in the article "Comparative Effects of Indomethacin, Acetylenic Acids, 15-HETE, NDGA and BW755C on the Metabolism of Arachidonic Acid in Human Leukocytes and Platelets", H. Solari, P. Braquet and P. Borgeat, Prost. Leuk. Med. 13, pp. 53-60, 1984.
Human neutrophils and platelets were obtained from the blood of normal volunteers. The blood was collected into tubes containing EDTA as an anticoagulant. The blood was centrifuged at 250×g for 15 minutes and the platelet rich plasma was removed. The cell fraction was mixed with an equal volume of 0.9% saline containing 10 mM dextrose and resuspended in Dulbecco's phosphate buffered saline (PBS) without Mg^++ and Ca^++ and was counted. The cell suspension was adjusted to give a leukocyte count of 2-3×10^7 cells/ml.
Test compounds were dissolved in ethanol and added to polypropylene tubes. To control tubes (drug-free) only ethanol was added. The ethanol was evaporated to dryness under a stream of argon and then 0.1 ml of the cell suspension (2-3×10^6 cells) was added. This mixture was pre-incubated for 5 minutes at 37° and then the reaction was initiated by addition of ^3 H-arachidonic acid, calcium ionophore (A23187), and calcium ion. The final concentration of each component was: arachidonic acid, 10 uM; A23187, […]; calcium ion, […]. After 5 minutes the incubations were stopped by addition of an equal volume of methanol. The tubes were spun at 11,000 g for 2 minutes to pellet the precipitated protein. The supernatant was analyzed by HPLC for 5-HETE. The formation of this product is indicative of 5-lipoxygenase activity. Test drugs were evaluated for their ability to inhibit 5-HETE formation. Percent inhibition of varying concentrations of test drugs was determined in duplicate by comparing the peak quantitation in the presence and absence (control) of drug. […] The IC50 values were calculated from log-dose response curves of pooled data from at least two experiments by linear regression analysis.
The activity was tested by the same method as in the previous example.
The enzyme inhibitory activity of these compounds was tested by the same method.

Human Platelet CO = target: T2, Human Platelet CO (Homo sapiens, UniProt P23219); assay: Inhibition of CO, human platelet; format: cell-based; settings: for IC50: 95% confidence interval given for some; for inhibition at 100 µM: read-out: % I Human Platelet CO; for inhibition at 100 µM / % I Human Platelet CO: @ 100 μM
T2 construct: Human neutrophils and platelets were obtained from the blood of normal volunteers; endogenous in cells; host or cells: human platelets from blood of normal volunteers
T2 sequence (P23219 24-599): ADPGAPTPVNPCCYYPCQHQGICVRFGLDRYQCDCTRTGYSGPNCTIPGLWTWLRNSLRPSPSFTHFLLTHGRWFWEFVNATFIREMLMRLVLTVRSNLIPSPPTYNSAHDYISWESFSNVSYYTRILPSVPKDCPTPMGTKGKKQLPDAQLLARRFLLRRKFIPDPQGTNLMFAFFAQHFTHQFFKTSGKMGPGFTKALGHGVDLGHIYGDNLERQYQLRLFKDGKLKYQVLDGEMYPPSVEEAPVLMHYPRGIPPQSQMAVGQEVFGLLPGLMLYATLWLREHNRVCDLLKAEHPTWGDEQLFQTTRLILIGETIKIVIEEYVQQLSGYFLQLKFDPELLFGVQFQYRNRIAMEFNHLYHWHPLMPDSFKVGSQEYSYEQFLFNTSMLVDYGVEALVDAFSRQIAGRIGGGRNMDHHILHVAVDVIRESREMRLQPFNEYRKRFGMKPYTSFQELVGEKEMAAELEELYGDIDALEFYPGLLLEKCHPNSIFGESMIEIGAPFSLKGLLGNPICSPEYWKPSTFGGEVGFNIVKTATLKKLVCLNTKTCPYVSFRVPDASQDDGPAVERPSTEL

Human Platelet 12-LPO = target: T3, Human Platelet 12-LPO (Homo sapiens, UniProt P18054); assay: Inhibition of 12-LPO, human platelet; format: cell-based; settings: for IC50: 95% confidence interval; for inhibition at 100 µM: read-out: % I Human Platelet 12-LPO
T3 construct: Human neutrophils and platelets were obtained from the blood of normal volunteers; endogenous in cells; host or cells: human platelets from blood of normal volunteers
T3 sequence (P18054 1-663): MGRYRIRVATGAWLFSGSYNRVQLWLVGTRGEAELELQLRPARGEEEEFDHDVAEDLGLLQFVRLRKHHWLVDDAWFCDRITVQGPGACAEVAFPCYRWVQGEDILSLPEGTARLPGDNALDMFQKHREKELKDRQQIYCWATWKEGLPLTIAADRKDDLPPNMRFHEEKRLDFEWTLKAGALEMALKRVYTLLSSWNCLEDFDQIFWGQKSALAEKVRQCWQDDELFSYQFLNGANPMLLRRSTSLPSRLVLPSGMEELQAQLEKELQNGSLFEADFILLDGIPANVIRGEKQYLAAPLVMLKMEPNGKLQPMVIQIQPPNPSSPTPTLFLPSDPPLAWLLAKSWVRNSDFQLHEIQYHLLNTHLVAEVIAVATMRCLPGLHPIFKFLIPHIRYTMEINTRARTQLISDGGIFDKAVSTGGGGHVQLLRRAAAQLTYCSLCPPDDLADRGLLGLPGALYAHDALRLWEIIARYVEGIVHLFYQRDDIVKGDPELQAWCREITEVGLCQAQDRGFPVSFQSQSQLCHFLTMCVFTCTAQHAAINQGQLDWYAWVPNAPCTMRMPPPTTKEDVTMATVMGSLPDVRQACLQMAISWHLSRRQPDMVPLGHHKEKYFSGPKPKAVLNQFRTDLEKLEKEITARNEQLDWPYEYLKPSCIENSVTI

[2] = system: cell infiltration (leukocytes); assay: Carrageenan sponge implantation model, cell infiltration; format: in vivo, rat
From the text: (§1) The carrageenan sponge implantation model is primarily used to measure the effect of antiinflammatory agents on cell infiltration. An acute inflammatory response is stimulated by the implantation of a small sponge beneath the skin of rats. The sponge normally contains an inflammatory stimulus such as carrageenan and produces a response which is characterized by infiltration of cells and accumulation of fluid. The number of cells in the exudate can be conveniently measured in the exudate fluid.
(§2) The compound of Example I was evaluated for its local effect on cell migration and mediator production in this model. For comparison, indomethacin and BW755C were also evaluated after local application. Polyester sponges were soaked in solutions of 0.5% carrageenan (in normal saline) which also contained 1% or 5% wt/vol of the test compound. The impregnated sponge was inserted through a small incision on the dorsal surface of a lightly anesthetized rat into a subcutaneous pocket formed by blunt dissection. The incision was then closed. The control treatment consisted of a sponge soaked in 0.5% carrageenan in normal saline. Animals were sacrificed 6 hours after sponge implantation. Sponges are dissected out an placed in heparinized saline. The number of infiltrating cells were determined using a coulter counter. The inflammatory mediators prostaglandin E2, LTB4 and TxB2 in the exudate were determined by radioimmunoassay.

[3] = system: inflammatory mediators prostaglandin E2, LTB4 and TxB2; assay: Carrageenan sponge implantation model, mediator production in exudate; format: in vivo, rat; settings: Experiment 2, 5% compound
From the text: as §1, §2

[4] = PMNL, read-out: % I Human PMNL 5-LPO
[5] = Table I, R=H, phenylalkyl hydroxamic acids, read-out: IC50 5-LPO (Inhibition of Human Leukocyte 5-LPO)
[6] = FIG. 1 table, 95% confidence interval, read-out: IC50 Human PMNL 5-LPO
[7] = ring-substituted 9-phenylnonanohydroxamic acids, read-out: IC50 (5-lipoxygenase)
[8] = text comparison with prior-art compound, read-out: IC50 in the 5-lipoxygenase inhibition test

Compound: COc1ccc(CCCCCCCCC(=O)NO)cc1 [BMY 30173, 9(4-Methoxyphenyl)nonanohydroxamic acid]
IC50 [1, 7]: 2.4 µM

Compound: O=C(CCCCCCCCc1ccc(Cl)cc1)NO [BMY 30174, 9(4-chlorophenyl)nonanohydroxamic acid]
IC50 [1, 7]: 6.1 µM

Compound: COc1cccc(CCCCCCCCC(=O)NO)c1 [BMY 30181, 9(3-methoxyphenyl)nonanohydroxamic acid]
IC50 [1, 7]: 5.4 µM

Compound: Cc1cccc(CCCCCCCCC(=O)NO)c1 [BMY 30182, 9(3-methylphenyl)nonanohydroxamic acid]
IC50 [1, 7]: 6.2 µM

Compound: CCCCCCOc1ccc(CCCCCCCCC(=O)NO)cc1 [BMY 30230, 9(4-Hexyloxyphenyl)nonanohydroxamic acid]
% Inhibition at 100 μm [1]: 0%

Compound: CCCCOc1ccc(CCCCCCCCC(=O)NO)cc1 [BMY 30239, 9(4-Butoxyphenyl)nonanohydroxamic acid]
% Inhibition at 100 μm [1]: 56.0%

Compound: CCCCCCOc1ccc(CCCCCCCCC(=O)N(O)C(C)C)cc1 [BMY 30240, N-isopropyl 9(4-hexyloxyphenyl)nonanohydroxamic acid]
% Inhibition at 100 μm [1]: 45.8%

Compound: CCCCCCOc1ccc(CCCCCCCCC(=O)N(C)O)cc1 [BMY 30241, N-Methyl 9(4-Hexyloxyphenyl)nonanohydroxamic acid]
% Inhibition at 100 μm [1]: 95.9%

Compound: NC1=NN(c2cccc(C(F)(F)F)c2)CC1 [BW755C, reference compound]
Leukocyte No. ([2]; Experiment 2, 0.5% carrageenan plus 5% compound in sponge, 6 h, control 33.0 ± 3.8): 6.9 ± 1.7 cells/ml (× 10^-6) | reduction of cell infiltration ([2]; dosed at 5%): 79% | TXB2 ([3]; control 19.2 ± 1.9): 0.8 ± 0.3 ng/ml Exudate | PGE2 ([3]; control 137.6 ± 13.1): 3.0 ± 1.0 ng/ml Exudate

Compound: O=C(CCCCCCc1ccccc1)NO [Compound 2a]
IC50 [1, 8]: 20.9 µM

Compound: O=C(CCCCCCCc1ccccc1)NO [Compound 2b]
IC50 (Human Platelet CO): 26 µM | IC50 [1, 6]: 12.2 µM | inhibition at 100 µM (Human Platelet 12-LPO): 53%

Compound: O=C(CCCCCCCCCc1ccccc1)NO [Compound 2c]
IC50 (Human Platelet CO): 32 µM | IC50 [1, 6]: 11.6 µM | inhibition at 100 µM (Human Platelet 12-LPO): 10%

Compound: O=C(CCCCCCCCCCc1ccccc1)NO [Compound 2d]
IC50 [1, 5]: 11 µM

Compound: O=C(CCCCCCCCCCCc1ccccc1)NO [Compound 2e]
IC50 [1, 5]: 10.3 µM

Compound: O=C(NO)c1ccccc1 [n=0, reference compound]
IC50 [1, 5]: > 100 µM

Compound: O=C(Cc1ccccc1)NO [n=1, reference compound]
IC50 [1, 5]: > 100 µM

Compound: O=C(CCc1ccccc1)NO [n=2, reference compound]
IC50 [1, 5]: > 100 µM

Compound: O=C(CCCCCCCCCCCCc1ccccc1)NO [n=12, reference compound]
IC50 [1, 5]: > 50 µM

Compound: O=C(CCCCCc1ccccc1)NO [reference compound]
IC50 [1, 8]: > 100 µM

The next lines start with the values.

inhibition at 100 µM [1, 4]: 11% | IC50 [1, 5]: > 100 µM
Compound: O=C(CCCc1ccccc1)NO [BMY30077]

inhibition at 100 µM [1, 4]: 22% | IC50 [1, 5]: > 100 µM
Compound: O=C(CCCCc1ccccc1)NO [BMY30083]

inhibition at 50 µM ([1]; PMNL, @ 50 μM, read-out: % I Human PMNL 5-LPO): 7.5% | IC50 [1, 5]: > 100 µM
Compound: O=C(CCCCCCCCCCCCCCc1ccccc1)NO [BMY30152]

IC50 (Human Platelet CO): 2.9 µM | IC50 [1, 6]: 0.1 µM | IC50 (Human Platelet 12-LPO): 3.6 µM
Compound: CN(O)C(=O)CCCCCCCc1ccccc1 [BMY30208, N-methyl-8-phenyloctanohydroxamic acid]

IC50 (Human Platelet CO): 4.2 µM | IC50 [1, 6]: 0.16 µM | IC50 (Human Platelet 12-LPO): 4.5 µM
Compound: CC(C)N(O)C(=O)CCCCCCCc1ccccc1 [BMY30214]

IC50 (Human Platelet CO): 4.6 µM | IC50 [1, 6]: 0.09 µM | IC50 (Human Platelet 12-LPO): 5.5 µM
Compound: CN(O)C(=O)CCCCCCCCCc1ccccc1 [BMY30217]

IC50 (Human Platelet CO): 7.6 µM | IC50 [1, 6]: 0.14 µM | IC50 (Human Platelet 12-LPO): 26.7 µM
Compound: CC(C)N(O)C(=O)CCCCCCCCCc1ccccc1 [BMY30218]

IC50 (Human Platelet CO): 30.9 µM | IC50 [1, 6]: 0.07 µM | IC50 (Human Platelet 12-LPO): 12.5 µM
Compound: CC(C)N(O)C(=O)CCCCCCc1ccccc1 [BMY30222]

IC50 (Human Platelet CO): 2.1 µM | IC50 [1, 6]: 0.17 µM | IC50 (Human Platelet 12-LPO): 2.5 µM
Compound: CN(O)C(=O)CCCCCCCCc1ccccc1 [BMY30223]

IC50 (Human Platelet CO): 18.4 µM | IC50 [1, 6]: 0.18 µM | IC50 (Human Platelet 12-LPO): 13.9 µM
Compound: CC(C)N(O)C(=O)CCCCCCCCc1ccccc1 [BMY30224]

inhibition at 100 µM (Human Platelet CO): 25% | IC50 [1, 6]: 0.9 µM | inhibition at 100 µM (Human Platelet 12-LPO): 59%
Compound: CC(C)N(O)C(=O)CCCCc1ccccc1 [BMY30226]

inhibition at 100 µM (Human Platelet CO): 7% | IC50 [1, 6]: 0.7 µM | inhibition at 100 µM (Human Platelet 12-LPO): 31%
Compound: CC(C)N(O)C(=O)CCCc1ccccc1 [BMY30227]

% I Human Platelet CO (Human Platelet CO): inactive | IC50 [1, 6]: 25.3 µM | inhibition at 100 µM (Human Platelet 12-LPO): 17%
Compound: CN(O)C(=O)CCCCCCCCCCCCCCc1ccccc1 [BMY30228]

% I Human Platelet CO (Human Platelet CO): inactive | IC50 [1, 6]: 80 µM | inhibition at 100 µM (Human Platelet 12-LPO): 10%
Compound: CC(C)N(O)C(=O)CCCCCCCCCCCCCCc1ccccc1 [BMY30229]
